Source: ChEMBL document CHEMBL4024772, “Aniline-Based Inhibitors of Influenza H1N1 Virus Acting on Hemagglutinin-Mediated Fusion” (J Med Chem, 2018)

Experiments:
Test in all cases: microbe, parasite or virus in culture
Format in all cases: functional, cell-based
Details in all cases: MDCK
Influenza A virus [1] = test system: Influenza A virus
Influenza A virus [2] = test system: Influenza A virus; remark: listed apart in the source
Influenza A virus [3] = test system: Influenza A virus; remark: listed apart in the source

In the case of `CC(C)c1ccccc1NCCN1CCCCCC1`, the EC50 (Influenza A virus [1]) is reported as over 100 µM, the EC50 (Influenza A virus [2]) is reported as over 100 µM and the EC50 (Influenza A virus [3]) is reported as 1.5 µM.

Work on `CC(C)c1ccccc1NCCN1CCCCC1` yielded an EC50 (Influenza A virus [1]) of over 100 µM, an EC50 (Influenza A virus [2]) of over 100 µM and an EC50 (Influenza A virus [3]) of 2.3 µM.

With `NC(=O)c1ncn([C@@H]2O[C@H](CO)[C@@H](O)[C@H]2O)n1` [RIBAVIRIN] the EC50 (Influenza A virus [3]) was 15 µM.
